Test results taken from US20130210846A1, “USE OF NOVEL PAN-CDK INHIBITORS FOR TREATING TUMORS” (BAYER INTELLECTUAL PROPERTY GMBH, priority 2010, published 2013).

Columns and labels:
NCI-H460 = assay: Proliferation assay NCI-H460; format: cell-based, human; conditions: NCI-H460, non-small-cell bronchial carcinoma, 4 days, crystal violet
Summary of the method: (§1)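 Human tumour cells plated 1000 to 5000 cells/well, treated after 24 h with compound (0.01-30 μM, 0.5% DMSO) for 4 days. Growth by crystal violet staining read at 595 nm, normalised to zero-point plate and untreated cells; IC50 from 4-parameter fit.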

MCF7 = assay: Proliferation assay MCF7; format: cell-based, human; conditions: MCF7, estrogen receptor-positive mamma carcinoma, 4 days, crystal violet
Summary of the method: as §1

CDK2/CycE = target: T1, CDK2/CycE (Homo sapiens, UniProt P24941); assay: CDK2/CycE kinase assay (Assay 2); format: biochemical; conditions: 0.5 μM ATP, histon IIIS, 10 min 22° C.; read-out: CDK2/CycE (Assay 2) Concentration for half-maximal inhibition of the enzyme activity, IC50
T1 construct: purchased ProQinase GmbH, Freiburg, Germany; host or cells: baculovirus-infected insect cells (Sf9)
Experimental: Recombinant CDK2 and CycE-GST fusion proteins, purified from baculovirus-infected insect cells (Sf9), were purchased from ProQinase GmbH, Freiburg, Germany. Histon HIS, used as kinase substrate, was purchased from Sigma.
The reaction was stopped by adding EDTA solution (250 mM, pH 8.0, 15 μl/measuring point).
From each reaction mixture, 15 μl was applied to P30 filter strips (from Wallac), and unincorporated ^33P-ATP was removed by washing the filter strips three times, for 10 min each time, in 0.5% phosphoric acid. After drying the filter strips for 1 hour at 70° C., the filter strips were covered with scintillator strips (MeltiLex™ A, from Wallac) and stoved for 1 hour at 90° C. The amount of incorporated ^33P (substrate phosphorylation) was determined by scintillation measurement in a gamma-radiation measuring instrument (Wallac). […] The IC50 values were determined by means of a 4-parameter fit using the company's own software.

A549 = assay: Proliferation assay A549; format: cell-based; conditions: Homo sapiens, 96 h; A549, non-small-cell bronchial carcinoma; 4 days, crystal violet
Experimental: Cultivated human tumor cells (originally obtained from ATCC, HeLa-MaTu and HeLa-MaTu-ADR, originally obtained from Epo GmbH, Berlin, Germany) were plated at a density of 1000 to 5000 cells/measuring point, depending on the growth rate of the cell line, in a 96-well multititer plate in 200 μl of growth medium (DMEM/HAMS F12, 2 mM L-glutamine, 10% fetal calf serum). After 24 hours the cells of one plate (zero-point plate) were stained with crystal violet (see below), whereas the medium of the other plates was replaced with fresh culture medium (200 μl), to which the test substances had been added at various concentrations (0 μM, and in the range 0.01-30 μM; the final concentration of the solvent dimethyl sulfoxide was 0.5%). The cells were incubated for 4 days in the presence of the test substances. Cellular proliferation was determined by staining the cells with crystal violet: the cells were fixed by adding 20 μl/measuring point of an 11% glutaraldehyde solution for 15 min at room temperature. After washing the fixed cells with water three times, the plates were dried at room temperature. The cells were stained by adding 100 μl/measuring point of a 0.1% crystal violet solution (pH adjusted to pH3 by adding acetic acid). After washing the stained cells with water three times, the plates were dried at room temperature. The dye was dissolved by adding 100 μl/measuring point of a 10% acetic acid solution. The extinction was determined photometrically at a wavelength of 595 nm. The percentage change in cell growth was calculated by standardization of the measured values to the extinction values of the zero-point plate (=0%) and the extinction of the untreated (0 μM) cells (=100%). The measured data were standardized to 0% inhibition (cell proliferation without inhibitor) and 100% inhibition (zero-point plate). The IC50 values were determined by means of a 4-parameter fit using the company's own software.
The substances were examined in the following cell lines which, in an exemplary manner, represent the stated indications: […]

[1] = target: T2, VEGF receptor tyrosine kinase-2 (VEGF-R2) (Homo sapiens, UniProt P35968); assay: VEGF receptor-2 kinase assay (Assay 3); format: biochemical; conditions: 8 μM ATP, poly-(Glu4Tyr), 10 min 22° C.; read-out: VEGF-R2 (Assay 3) Concentration for half-maximal inhibition of the enzyme activity, IC50
T2 construct: GST; made in house; host or cells: baculovirus-infected insect cells (Sf9)
T2 sequence (P35968 20-1356, species assumed): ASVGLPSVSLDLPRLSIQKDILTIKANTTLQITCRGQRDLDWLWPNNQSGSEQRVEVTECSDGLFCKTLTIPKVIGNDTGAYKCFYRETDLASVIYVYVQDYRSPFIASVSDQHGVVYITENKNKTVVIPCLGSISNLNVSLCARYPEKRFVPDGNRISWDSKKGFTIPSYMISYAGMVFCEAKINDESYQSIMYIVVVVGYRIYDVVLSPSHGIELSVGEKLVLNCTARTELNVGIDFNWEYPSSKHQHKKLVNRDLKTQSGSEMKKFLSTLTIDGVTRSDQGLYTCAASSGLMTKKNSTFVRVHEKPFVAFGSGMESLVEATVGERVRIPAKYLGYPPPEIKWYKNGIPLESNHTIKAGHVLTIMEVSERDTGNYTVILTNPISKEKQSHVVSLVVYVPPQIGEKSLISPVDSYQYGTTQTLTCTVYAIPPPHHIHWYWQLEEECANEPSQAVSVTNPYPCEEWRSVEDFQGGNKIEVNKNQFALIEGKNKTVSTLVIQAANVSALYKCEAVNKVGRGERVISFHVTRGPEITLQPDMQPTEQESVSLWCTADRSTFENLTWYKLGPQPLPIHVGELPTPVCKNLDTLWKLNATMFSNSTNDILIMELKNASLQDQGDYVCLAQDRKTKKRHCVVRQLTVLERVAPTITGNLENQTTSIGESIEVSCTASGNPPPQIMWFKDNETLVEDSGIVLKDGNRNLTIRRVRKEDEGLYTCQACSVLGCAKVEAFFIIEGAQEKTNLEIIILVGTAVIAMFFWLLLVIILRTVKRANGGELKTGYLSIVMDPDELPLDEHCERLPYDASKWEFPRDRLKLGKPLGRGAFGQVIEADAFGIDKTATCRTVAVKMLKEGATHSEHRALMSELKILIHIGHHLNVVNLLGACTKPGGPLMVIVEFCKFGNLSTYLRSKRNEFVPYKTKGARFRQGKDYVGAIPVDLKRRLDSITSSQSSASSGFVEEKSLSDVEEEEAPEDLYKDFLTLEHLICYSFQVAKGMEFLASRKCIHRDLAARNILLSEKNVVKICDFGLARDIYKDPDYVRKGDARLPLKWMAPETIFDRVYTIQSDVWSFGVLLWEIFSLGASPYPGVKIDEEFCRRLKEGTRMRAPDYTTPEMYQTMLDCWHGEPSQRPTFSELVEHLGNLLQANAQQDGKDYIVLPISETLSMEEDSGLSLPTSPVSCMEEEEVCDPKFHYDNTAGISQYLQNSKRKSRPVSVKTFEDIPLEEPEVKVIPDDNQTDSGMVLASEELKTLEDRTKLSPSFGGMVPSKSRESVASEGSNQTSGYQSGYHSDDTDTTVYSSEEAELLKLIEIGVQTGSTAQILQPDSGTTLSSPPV

IC50 (NCI-H460)	IC50 (MCF7)	IC50 (CDK2/CycE)	IC50 (A549)	IC50 [1]	IC50 (NCI-H460; Homo sapiens, NCI-H460, 96 h)	IC50 (MCF7; Homo sapiens, MCF7, 96 h)	SMILES
16 nM	11 nM	–	–	–	–	–	C[C@@H](O)[C@@H](C)Oc1nc(Nc2ccc(S(C)(=N)=O)cc2)ncc1C(F)(F)F (mixture of isomers) [Example 2-SI-2, (RS)—S-(4-{[4-{[(1R,2R)-2-Hydroxy-1-methylpropyl]oxy}-5-(trifluoromethyl)pyrimidin-2-yl]-amino}phenyl)-S-methylsulfoximide]
–	–	5 nM	23 nM	281 nM	–	–	C[C@@H](O)[C@@H](C)Oc1nc(Nc2ccc(S(C)(=N)=O)cc2)ncc1C(F)(F)F (single isomer, unassigned) [Example 2-SI-2]
–	–	6 nM	< 10 nM	46 nM	16 nM	34 nM	C[C@@H](O)[C@@H](C)Nc1nc(Nc2ccc(S(=N)(=O)C3CC3)cc2)ncc1C(F)(F)F (mixture of isomers) [Example 4-SI-1, (RS)—S-Cyclopropyl-S-(4-{[4-{[(1R,2R)-2-hydroxy-1-methylpropyl]amino}-5-(trifluoromethyl)-pyrimidin-2-yl]amino}phenyl)sulfoximide]
